Several values for one entry are separate records, joined by “and”; a condition that tells them apart may be missing. Identical values can stand only once.
Tests used:
[1] = test system: β-glucosidase from almonds; assay: Indigogenic reaction with β-glucosidase from almonds; type: biochemical
[2] = biological target: T1, β-glucosidase from Agrobacterium (Agrobacterium sp., UniProt P12614); assay: Indigogenic reaction with β-glucosidase from Agrobacterium; type: biochemical; settings: for Yield of indigoid dye: 33 100 μM, enzyme 200 nM; for Yield (%) β-glucosidase from Agrobacterium: as E4 but ϵ = 2.6 × 10^4 M^−1 cm^−1 measured for 43
T1 construct: purchased Megazyme
T1 sequence (P12614 1-459): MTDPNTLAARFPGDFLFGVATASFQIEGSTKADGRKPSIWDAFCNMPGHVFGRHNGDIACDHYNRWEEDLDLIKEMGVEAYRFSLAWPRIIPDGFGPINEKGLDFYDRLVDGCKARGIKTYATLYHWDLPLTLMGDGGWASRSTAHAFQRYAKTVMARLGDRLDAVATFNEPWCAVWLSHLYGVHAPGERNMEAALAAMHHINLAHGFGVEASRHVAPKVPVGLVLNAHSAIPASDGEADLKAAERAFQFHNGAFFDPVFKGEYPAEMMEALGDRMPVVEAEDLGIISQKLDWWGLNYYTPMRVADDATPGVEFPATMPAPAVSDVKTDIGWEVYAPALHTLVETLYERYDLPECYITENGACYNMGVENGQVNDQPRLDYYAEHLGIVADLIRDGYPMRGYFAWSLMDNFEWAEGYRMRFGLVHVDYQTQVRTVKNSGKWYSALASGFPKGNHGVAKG
Experimental: Next, the β-glucosidase from Agrobacterium sp. was investigated as the trigger enzyme for indigoid dye formation. […] The reaction was carried out using the enzyme (200 nM) and indoxyl-glucoside 33 (100 μM) in phosphate buffer (pH 4-9, containing 2% DMF) at 37° C. […] Note that with 200 nM enzyme and 100 μM substrate, complete reaction requires 500 turnovers of each enzyme.
Reactions with β-glucosidase from Agrobacterium. An indoxyl compound in DMF (2 μL, 5 mM) and β-glucosidase from Agrobacterium in 10 mM phosphate buffer [2 μL, 10 μM, pH 7.0, containing 50 mM NaCl and 0.6 M (NH4)2SO4] were mixed with 50 mM phosphate buffer (96 μL, pH 7.0). The reaction mixture was incubated at 37° C. for 2 h and then centrifuged for 3 min. Any precipitate was separated from the supernatant and dissolved in DMF (200 μL). The resulting solution was analyzed by absorption spectroscopy. The experiment was repeated three times.

rat liver homogenate = assay: Indigoid-dye formation in rat liver homogenate; type: biochemical; settings: as E7 but ϵ = 2.6 × 10^4 M^−1 cm^−1 measured for 43
Experimental: Finally, indigoid-dye formation was carried out in rat liver homogenate (Table 1, rightmost column).
Reactions in rat liver homogenate. An indoxyl compound in DMF (5 μL, 20 mM) was mixed with rat liver homogenate (95 μL). The reaction mixture was incubated at 37° C. for 24 h. After allowing to cool to room temperature, the reaction mixture was diluted with DMF (900 μL). The mixture was heated at 70° C. for 2 min and then centrifuged for 2 min. The supernatant was separated from any precipitate. This extraction procedure was repeated two or three times with DMF (100-500 μL). The combined supernatant (1500-1800 μL) was analyzed by absorption spectroscopy.

[3] = biological target: T2, β-glucosidase from Agrobacterium plus rat liver homogenate (Agrobacterium sp., UniProt P12614); assay: Reaction with β-glucosidase from Agrobacterium in rat liver homogenate; type: biochemical; settings: 33 100 μM, enzyme 200 nM, 2% DMF, 37° C., 4 h; ϵ = 2.6 × 10^4 M^−1 cm^−1
T2 construct: purchased Megazyme
T2 sequence (P12614 1-459): T1 sequence (P12614 1-459)
Experimental: Finally, indigoid-dye formation was carried out in rat liver homogenate (Table 1, rightmost column). Good yields were obtained in the case of 42 (65%, entry 4) and 27 (50%, entry 13). […] However, when β-glucosidase from Agrobacterium (200 nM) was present in rat liver homogenate, the indigoid dye was obtained in 81% yield (entry 15).
Reaction of 33 with β-glucosidase from Agrobacterium in rat liver homogenate. A DMF solution of 33 (2 μL, 5 mM) and β-glucosidase from Agrobacterium in 10 mM phosphate buffer [2 μL, 10 μM, pH 7.0, containing 50 mM NaCl and 0.6 M (NH4)2SO4] were mixed with rat liver homogenate (96 μL). The reaction mixture was incubated at 37° C. for 4 h and then centrifuged for 3 min. Any precipitate was separated from the supernatant and then suspended in DMF (200 μL). The suspension was centrifuged for 3 min. The supernatant was analyzed by absorption spectroscopy.

tritosomes = assay: Indigoid dye formation with tritosomes; type: biochemical; settings: for Indigoid dye formation with tritosomes: result in words
Experimental: The results from the glucosidase survey prompted several further experiments. First, a parallel set of studies was carried out with inclusion of several oxidants commonly employed in histochemical studies, given that the indigoid dye forming process requires the presence of an oxidant. […] The activity of the β-glucosidase was affected only slightly in the presence of a non-ionic detergent. To verify that the results observed in Table 1 were reliable, a 5-mg scale reaction of 33 was carried out to isolate indigo 43, which was obtained in 66% yield (Scheme 7). The 66% isolated yield corresponded well with the enzymatic yield of […] (Table 1, entry 15).
General methods. β-Glucosidase from almonds (lyophilized powder, ≥2 units/mg solid) and peroxidase from horseradish were purchased from Sigma-Aldrich. β-Glucosidase from Agrobacterium sp. (recombinant, suspension in 3.2 M (NH4)2SO4) was purchased from Megazyme; the concentration in solution was determined by absorption spectroscopy with E^0.1%=2.20 cm^−1 at 280 nm.^37 Tritosomes were purchased from XenoTech. Rat liver homogenate was purchased from MP Biomedicals.

β-glucosidase = assay: Treatment of F-9 with β-glucosidase; type: biochemical; settings: result in words
Experimental: Triazine-based A2BC architectures. Cyanuric chloride (F-8) was treated with 2 equiv of F-7 followed by tyramine to afford F-9 in 56% yield (Scheme 17). […] Treatment of N-(6-hydroxyhexyl)maleimide (F-10) (K. A. Keller, et al., Tetrahedron Lett., 2005, 46, 1181-1184. “A Thermally-Cleavable Linker for Solid-Phase Synthesis”) with cyanuric chloride (F-8) followed by F-9 in the presence of bases gave F-11 in 77% yield. […] While F-9 and F-11 were attractive from a synthetic standpoint given the ability to derivatize the 5-hydroxy group of the indoxyl unit without protection of the four hydroxy groups of the glucosyl unit, the reaction with a β-glucosidase was sine qua non in the molecular design. Accordingly, we moved to the design of a more suitable architecture.

[4] = Solubility in aqueous buffer; type: physicochemical; settings: 100 mM phosphate buffer (pH 7.4, containing 100 mM NaCl), room temperature
Source text: Water solubility of the indoxyl glucoside is important for biological applications. […] Therefore, this compound is not suitable for bioconjugation. The synthesis of 34 relies on successive substitution of the dichloroanilinotriazine unit (derived from N,N-bis(2-methoxyethyl)aniline^31 and cyanuric chloride) with indoxyl-glucoside-PEG-OH and BCN-PEG-NH2 building blocks.
To improve the water solubility of the indoxyl species, a sulfobetaine unit^32,33 was incorporated as a water-solubilizing group. Sulfobetaines are stable zwitterions over a wide range of pH. Synthesis of an indoxyl bearing a sulfobetaine unit is illustrated in Scheme 6. Boc-piperazine (35) was treated with 1,3-propane sultone to afford 36 in 63% yield. Quaternization of the tertiary nitrogen atom in 36 with 3-bromopropanol gave Boc-protected sulfobetaine 37 in 69% yield. The Boc group was cleaved with trifluoroacetic acid (TFA) to afford piperazine-TFA salt 38 in 97% yield. The N-acetyl group of 32 was selectively deprotected with NaHCO3/MeOH in 84% yield. The product 39, piperazine-TFA salt 38, and BCN-amine 14 were assembled at a triazine ring via one-flask, successive substitution of cyanuric chloride to afford 40 in 51% yield. Cleavage of the acetyl groups of sulfobetaine 40 provided 41 in 98% yield.

[5] = indoxyl 1 mM, enzyme 1 unit/mL, 0.01M acetate buffer pH 5, 5% DMF, 37° C., 16-19 h, ϵ = 1.27 × 10^4 M^−1 cm^−1 measured for 4

## OCCOCCOCCOc1c(Br)cc2[nH]cc(O[C@@H]3O[C@H](CO)[C@@H](O)[C@H](O)[C@H]3O)c2c1Br [Compound 33, 4,6-Dibromo-5-[1-hydroxy-3,6,9-trioxanon-9-yl]-1H-indol-3-yl β-D-glucopyranoside]
[1]; 5-mg scale reaction of 33, acetate buffer pH 5.0, 37° C., 22 h
  Isolated yield of indigo 43: 66%
[1]; as E1 but ϵ = 2.6 × 10^4 M^−1 cm^−1 measured for 43
  Yield (%) β-glucosidase from almonds: 52% and 52^g %
[2]; pH 6-9, 3 h, in words
  Yield of indigoid dye: High to quantitative yields
[2]; phosphate buffer pH 4, 3 h
  Yield of indigoid dye: 6%
[2]; phosphate buffer pH 5, 3 h
  Yield of indigoid dye: 38%
[2]
  Yield (%) β-glucosidase from Agrobacterium: 99%
Rat liver homogenate
  Yield (%) rat liver homogenate: < 5%
[3]
  Yield (%) β-glucosidase from Agrobacterium plus rat liver homogenate: 81%

## OC[C@H]1O[C@@H](Oc2c[nH]c3ccc(Oc4nc(NCCc5ccc(O)cc5)nc(Oc5ccc6[nH]cc(O[C@@H]7O[C@H](CO)[C@@H](O)[C@H](O)[C@H]7O)c6c5)n4)cc23)[C@H](O)[C@@H](O)[C@@H]1O [Compound F-9, 2,4-Bis[3-(β-D-glucopyranosyloxy)-1H-indol-5-yloxy]-6-[2-(4-hydroxyphenyl)ethylamino]-1,3,5-triazine]
tritosomes
  Yield of indigoid dye with tritosomes: ca. 4%
β-glucosidase
  Indigoid dye formation upon treatment with β-glucosidase: did not form the corresponding indigoid dye

## COc1nc(Oc2ccc3[nH]cc(O[C@@H]4O[C@H](CO)[C@@H](O)[C@H](O)[C@H]4O)c3c2)nc(N2CCOCC2)n1 [Compound 19, 5-[(4-Methoxy-6-morpholino-1,3,5-triazin-2-yl)oxy]-1H-indole-3-yl β-D-glucopyranoside]
[1]; [5]
  Yield (%) β-glucosidase from almonds: <1%
tritosomes
  Indigoid dye formation with tritosomes: low yield

## O=C(NCCOCCOCCNc1nc(OCCOCCOCCOc2c(Br)cc3[nH]cc(O[C@@H]4O[C@H](CO)[C@@H](O)[C@H](O)[C@H]4O)c3c2Br)nc(N2CC[N+](CCCO)(CCCS(=O)(=O)[O-])CC2)n1)OC[C@@H]1[C@@H]2CCC#CCC[C@@H]21 [Compound 41]
[2]
  Yield (%) β-glucosidase from Agrobacterium: 106% and 106 ± 4^g %
[4]
  solubility: > 400 µM

## 5-[(Benzylcarbamoyl)oxy)]-1H-indole-3-yl β-D-glucopyranoside [Compound 16]
[1]; [5]
  Yield (%) β-glucosidase from almonds: 24%
tritosomes
  Indigoid dye formation with tritosomes: low yield

Source: US12668646B2, “Cross-linking compounds and methods of use thereof” (North Carolina State University, priority 2019, dated 2026)
